Structures can show the parent of a compound that is named as a salt. Where two headings read alike, the source gives them in different places.
Key:
[1] = target: human recombinant GST cleaved CSNK1D (Homo sapiens (Human), UniProt P48730); test: Purified enzyme assay (ADP-Glo Kinase Assay); assay type: biochemical; conditions: 2 nM CSNK1D, peptide substrate 150 μM, ATP 20 μM, 45 minutes room temperature
[2] = target: human CSNK1D tagged with nanoluciferase (Homo sapiens (Human), UniProt P48730); test: Whole Cell nBRET CSNK1D Binding Assay; conditions: living CHO cells stably expressing human CSNK1D-nanoluciferase; NanoBret tracer 130 nM; 2 hours 37° C.; read-out: CSNK1D BRET IC50
How it was run: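 IC50 values come from milliBRET ratios ((E630/E450)*1000) fitted against log compound concentration. Tracer displacement was run in living CHO cells stably expressing NanoLuc-fused CSNK1D, with dosed compounds and 130 nM tracer incubated 2 h at 37 °C in serum-free OptiMEM before substrate addition and donor/acceptor reading.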

circadian rhythms [3] = conditions: in vivo locomotor activity of a variety of species; cited from earlier work
[4] = conditioned place preference with cocaine and alcohol reinstatement; cited from earlier work
circadian rhythms [5] = conditions: cellular reporter assays; cited from earlier work

Chain of human recombinant GST cleaved CSNK1D (P48730 whole entry): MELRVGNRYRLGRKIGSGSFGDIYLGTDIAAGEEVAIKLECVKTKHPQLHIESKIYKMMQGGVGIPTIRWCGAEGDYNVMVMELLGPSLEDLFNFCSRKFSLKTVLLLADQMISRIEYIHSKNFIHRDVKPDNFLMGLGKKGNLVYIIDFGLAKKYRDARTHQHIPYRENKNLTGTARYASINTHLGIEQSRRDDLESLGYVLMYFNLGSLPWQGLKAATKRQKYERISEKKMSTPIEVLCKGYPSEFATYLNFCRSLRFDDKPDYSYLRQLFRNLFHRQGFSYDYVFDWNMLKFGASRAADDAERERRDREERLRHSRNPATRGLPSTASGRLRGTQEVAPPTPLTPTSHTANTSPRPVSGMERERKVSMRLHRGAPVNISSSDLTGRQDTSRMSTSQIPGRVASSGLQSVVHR
Chain of human CSNK1D tagged with nanoluciferase (P48730 whole entry, the tested form may be a part): as the sequence (P48730 whole entry) above

SMILES | AC50 [1] | IC50 [2] | effect on circadian rhythms (circadian rhythms [3]) | efficacy in addiction/substance abuse models [4] | effect on circadian rhythms (circadian rhythms [5])
Cn1cc(-c2ccnc3[nH]cc(CC#N)c23)c(-c2ccc(F)cn2)n1 [Example 120, 2-[4-[3-(5-Fluoro-2-pyridyl)-1-methyl-pyrazol-4-yl]-1H-pyrrolo[2,3-b]pyridin-3-yl]acetonitrile] | 31 nM | 8710 nM |  |  | 
CCn1ncc2cc(-c3cn(C)nc3-c3ccc(F)cn3)cnc21 [Example 121, 1-Ethyl-5-[3-(5-fluoro-2-pyridyl)-1-methyl-pyrazol-4-yl]pyrazolo[3,4-b]pyridine] | 43 nM | 1600 nM |  |  | 
CC(C)c1n[nH]c2nccc(-c3cn(C)nc3-c3ccc(F)cn3)c12 [Example 122, 4-[3-(5-Fluoro-2-pyridyl)-1-methyl-pyrazol-4-yl]-3-isopropyl-1H-pyrazolo[3,4-b]pyridine] | 15 nM | > 10000 nM |  |  | 
Cc1nc(-c2cn(C)nc2-c2ccc(F)cn2)c2cc[nH]c2n1 [Example 123, 4-[3-(5-Fluoro-2-pyridyl)-1-methyl-pyrazol-4-yl]-2-methyl-7H-pyrrolo[2,3-d]pyrimidine Trifluoroacetate Salt] | 4 nM | 234 nM |  |  | 
Cc1nc(-c2cn(C)nc2-c2ccc(F)cn2)c2cn[nH]c2n1 [Example 124, 4-[3-(5-Fluoro-2-pyridyl)-1-methyl-pyrazol-4-yl]-6-methyl-1H-pyrazolo[3,4-d]pyrimidine] | 52 nM | 1940 nM |  |  | 
Cn1cc(-c2nc(C3CC3)nc3[nH]ccc23)c(-c2ccc(F)cn2)n1 [Example 125, 2-Cyclopropyl-4-[3-(5-fluoro-2-pyridyl)-1-methyl-pyrazol-4-yl]-7H-pyrrolo[2,3-d]pyrimidine] | 66 nM | 1910 nM |  |  | 
Cn1cc(-c2ccnc3cccnc23)c(-c2ccc(F)cn2)n1 [Example 126, 4-[3-(5-Fluoro-2-pyridyl)-1-methyl-pyrazol-4-yl]-1,5-naphthyridine] | 26 nM | 4620 nM |  |  | 
Cn1cc(-c2ccnc3ccc(F)nc23)c(-c2ccc(F)cn2)n1 [Example 127, 2-Fluoro-8-[3-(5-fluoro-2-pyridyl)-1-methyl-pyrazol-4-yl]-1,5-naphthyridine] | 46 nM | 962 nM |  |  | 
CCOc1ccc2nccc(-c3cn(C)nc3-c3ccc(F)cn3)c2n1 [Example 128, 2-Ethoxy-8-[3-(5-fluoro-2-pyridyl)-1-methyl-pyrazol-4-yl]-1,5-naphthyridine] | 11 nM | 103 nM |  |  | 
COc1ccc2nccc(-c3cn(C)nc3-c3ccc(F)cn3)c2c1 [Example 129, 4-[3-(5-Fluoro-2-pyridyl)-1-methyl-pyrazol-4-yl]-6-methoxy-quinoline] | 109 nM | 785 nM |  |  | 
Cc1ccc2nccc(-c3cn(C)nc3-c3ccc(F)cn3)c2n1 [Example 131, 8-[3-(5-Fluoro-2-pyridyl)-1-methyl-pyrazol-4-yl]-2-methyl-1,5-naphthyridine] | 310 nM | 4480 nM |  |  | 
Cc1csc2c(-c3cn(C)nc3-c3ccc(F)cn3)ccnc12 [Example 132, 7-[3-(5-Fluoro-2-pyridyl)-1-methyl-pyrazol-4-yl]-3-methyl-thieno[3,2-b]pyridine] | 361 nM | 5170 nM |  |  | 
Cc1ccnc2c(-c3cn(C)nc3-c3ccc(F)cn3)ccnc12 [Example 133, 4-[3-(5-Fluoro-2-pyridyl)-1-methyl-pyrazol-4-yl]-8-methyl-1,5-naphthyridine] | 7030 nM | > 10000 nM |  |  | 
Cc1cc(-c2cn(C3CC3)nc2-c2ccc(F)cn2)c2cn[nH]c2n1 [Example 134, 4-[1-Cyclopropyl-3-(5-fluoro-2-pyridyl)pyrazol-4-yl]-6-methyl-1H-pyrazolo[3,4-b]pyridine] | 30 nM | 329 nM |  |  | 
Cc1cc(-c2nn(C)cc2-c2cc(C)nc3[nH]ncc23)ccn1 [Example 135, 6-Methyl-4-[1-methyl-3-(2-methyl-4-pyridyl)pyrazol-4-yl]-1H-pyrazolo[3,4-b]pyridine] | 168 nM | 7120 nM |  |  | 
Cc1cc(-c2cn(C)nc2-c2ccncc2C)c2cn[nH]c2n1 [Example 136, 6-Methyl-4-[1-methyl-3-(3-methyl-4-pyridyl)pyrazol-4-yl]-1H-pyrazolo[3,4-b]pyridine] | 1040 nM | > 10000 nM |  |  | 
Cc1cncc(-c2nn(C)cc2-c2cc(C)nc3[nH]ncc23)c1 [Example 137, 6-Methyl-4-[1-methyl-3-(5-methyl-3-pyridyl)pyrazol-4-yl]-1H-pyrazolo[3,4-b]pyridine] | 38 nM | 890 nM |  |  | 
Cc1cc(-c2cn(C)nc2-c2ccncc2Cl)c2cn[nH]c2n1 [Example 138, 4-[3-(3-Chloro-4-pyridyl)-1-methyl-pyrazol-4-yl]-6-methyl-1H-pyrazolo[3,4-b]pyridine] | 217 nM | 8620 nM |  |  | 
Cc1cc(-c2cn(C)nc2-c2cncc(Cl)c2)c2cn[nH]c2n1 [Example 139, 4-[3-(5-Chloro-3-pyridyl)-1-methyl-pyrazol-4-yl]-6-methyl-1H-pyrazolo[3,4-b]pyridine] | 18 nM | 506 nM |  |  | 

SMILES | AC50 [1] | IC50 [2] | effect on circadian rhythms (circadian rhythms [3]) | efficacy in addiction/substance abuse models [4] | effect on circadian rhythms (circadian rhythms [5])
Cc1cc(-c2cn(C)nc2-c2c(C)cncc2F)c2cn[nH]c2n1 [Example 140, 4-[3-(3-Fluoro-5-methyl-4-pyridyl)-1-methyl-pyrazol-4-yl]-6-methyl-1H-pyrazolo[3,4-b]pyridine] | 1170 nM | > 10000 nM |  |  | 
COc1ncc(-c2nn(C)cc2-c2cc(C)nc3[nH]ncc23)cc1C [Example 141, 4-[3-(6-Methoxy-5-methyl-3-pyridyl)-1-methyl-pyrazol-4-yl]-6-methyl-1H-pyrazolo[3,4-b]pyridine] | 44 nM | 2020 nM |  |  | 
COc1ncc(-c2nn(C)cc2-c2cc(C)nc3[nH]ncc23)cc1Cl [Example 142, 4-[3-(5-Chloro-6-methoxy-3-pyridyl)-1-methyl-pyrazol-4-yl]-6-methyl-1H-pyrazolo[3,4-b]pyridine] | 28 nM | 382 nM |  |  | 
Cc1cc(-c2nn(C)cc2-c2cc(C)nc3[nH]ncc23)cnn1 [Example 143, 6-Methyl-4-[1-methyl-3-(6-methylpyridazin-4-yl)pyrazol-4-yl]-1H-pyrazolo[3,4-b]pyridine] | 1540 nM | > 10000 nM |  |  | 
Cn1cc(-c2ccnc3c2ccn3C)c(-c2ccc(F)cn2)n1 [Example 144, 4-[3-(5-Fluoro-2-pyridyl)-1-methyl-pyrazol-4-yl]-1-methyl-pyrrolo[2,3-b]pyridine] | 77 nM | 1720 nM |  |  | 
Cn1cc(-c2ccnc3sccc23)c(-c2ccc(F)cn2)n1 [Example 145, 4-[3-(5-Fluoro-2-pyridyl)-1-methyl-pyrazol-4-yl]thieno[2,3-b]pyridine] | 40 nM | 778 nM |  |  | 
Cn1cc(-c2cc(C(F)F)nc3[nH]ncc23)c(-c2cncc(F)c2)n1 [Example 146, 6-(Difluoromethyl)-4-[3-(5-fluoro-3-pyridyl)-1-methyl-pyrazol-4-yl]-1H-pyrazolo[3,4-b]pyridine] | 171 nM | 6570 nM |  |  | 
Cn1cc(-c2ccnc3c(F)cccc23)c(-c2ccc(F)cn2)n1 [Example 147, 8-Fluoro-4-[3-(5-fluoro-2-pyridyl)-1-methyl-pyrazol-4-yl]quinoline] | 1100 nM | > 10000 nM |  |  | 
COc1cccc2c(-c3cn(C)nc3-c3ccc(F)cn3)ccnc12 [Example 148, 4-[3-(5-Fluoro-2-pyridyl)-1-methyl-pyrazol-4-yl]-8-methoxy-quinoline] | 7090 nM | > 10000 nM |  |  | 
Cn1cc(-c2ccnc3cc(C#N)ccc23)c(-c2ccc(F)cn2)n1 [Example 149, 4-[3-(5-Fluoro-2-pyridyl)-1-methyl-pyrazol-4-yl]quinoline-7-carbonitrile] | 124 nM | > 10000 nM |  |  | 
Cn1cc(-c2ccnc3ccc(C#N)cc23)c(-c2ccc(F)cn2)n1 [Example 150, 4-[3-(5-Fluoro-2-pyridyl)-1-methyl-pyrazol-4-yl]quinoline-6-carbonitrile] | 113 nM | 1820 nM |  |  | 
COc1cc(OC)c2c(-c3cn(C)nc3-c3ccc(F)cn3)ccnc2c1 [Example 151, 4-[3-(5-Fluoro-2-pyridyl)-1-methyl-pyrazol-4-yl]-5,7-dimethoxy-quinoline] | 38 nM | 453 nM |  |  | 
Cn1cc(-c2ccnc3cc(F)cnc23)c(-c2ccc(F)cn2)n1 [Example 152, 3-Fluoro-8-[3-(5-fluoro-2-pyridyl)-1-methyl-pyrazol-4-yl]-1,5-naphthyridine] | 73 nM | 578 nM |  |  | 
Cn1cc(-c2ccnc3cc(Br)cnc23)c(-c2ccc(F)cn2)n1 [Example 153, 3-Bromo-8-[3-(5-fluoro-2-pyridyl)-1-methyl-pyrazol-4-yl]-1,5-naphthyridine] | 39 nM | 579 nM |  |  | 
COc1cc2nccc(-c3cn(C)nc3-c3ccc(F)cn3)c2cn1 [Example 154, 4-[3-(5-Fluoro-2-pyridyl)-1-methyl-pyrazol-4-yl]-7-methoxy-1,6-naphthyridine] | 25 nM | 522 nM |  |  | 
COc1cnc2c(-c3cn(C)nc3-c3ccc(F)cn3)ccnc2c1 [Example 155, 8-[3-(5-Fluoro-2-pyridyl)-1-methyl-pyrazol-4-yl]-3-methoxy-1,5-naphthyridine] | 22 nM | 318 nM |  |  | 
COc1ccc2ncc(F)c(-c3cn(C)nc3-c3ccc(F)cn3)c2n1 [Example 156, 7-Fluoro-8-[3-(5-fluoro-2-pyridyl)-1-methyl-pyrazol-4-yl]-2-methoxy-1,5-naphthyridine] | 52 nM | 803 nM |  |  | 
Nc1nccc(-c2c(-c3ccc(F)cc3)ncn2C2CCCCC2)n1 [PF-670462] |  |  | significantly lengthened circadian rhythms | have shown efficacy | significantly lengthened circadian rhythms
